Laboratory results as given in US20050148514A1, “Method and composition for treatment of angiogenesis” (priority 2003, published 2005).
“Also recorded” adds a separate entry of the source. Where no end group is shown, it is not given here.

Key:
NFkB pathway = assay: SEAP gene-reporter assay in U-87 glioma cells, NFkB element; type: cell-based; details: alkaline phosphatase activity in extracellular media
Protocol: In order to investigate the potential intracellular pathways triggered by the PCK3145 derivative, a gene-reporter assay using the SEAP (Secreted Alkaline Phosphatase) Mercury Profiling Kit (CLONTECH) was performed in glioma cells (U-87). This assay enables the monitoring of transcription factors that are triggered by a particular experimental condition by assaying the alkaline phosphatase activity in the extracellular media. […] The induction of the MAPK pathway by the PCK3145 derivative is further confirmed by the rapid and transient induction of ERK phosphorylation between 5-10 minutes (FIG. 8B) and is shown to be dose-dependent (FIG. 8C). Finally, the effects of the PCK3145 derivative were also compared to those of a scrambled peptide.

ERK [1] = assay: Growth factor-induced ERK phosphorylation in HUVEC (western blot); type: cell-based, Human
Protocol: (§1) Cell culture. Human umbilical vein endothelial cells (HUVEC) and pulmonary aortic smooth muscle cells (PASMC) were obtained from Clonetics and maintained in endothelial cell basal medium-2, (EBM-2; Clonetics) and smooth muscle medium-2 (SmGM-2; Clonetics), respectively. Cells were cultured at 37° C. under a humidified atmosphere containing 5% CO2. For experimental purposes, cells were plated in 8 100-mm plastic dishes at 5,000 cells/cm^2 and were grown to confluence before overnight serum starvation. Cells were treated with vehicle or with a PCK3145 derivative diluted in 0.1 N NaOH, and stimulated with 50 ng/ml VEGF, PDGF or with 1 μM S1P.
Immunoprecipitation and immunoblotting procedures. After treatment, cells were washed once with phosphate-buffered saline (PBS) containing 1 mM sodium orthovanadate and were incubated in the same medium for 1 h at 4° C. The cells were solubilized on ice in lysis buffer (150 mM NaCl, 10 mM Tris-HCl, pH 7.4, 1 mM EDTA, 1 mM EGTA, 0.5% Nonidet P-40, 1% Triton X-100) containing 1 mM sodium orthovanadate. The cells were then scraped from the culture dishes and the resulting lysates were clarified by centrifugation at 10,000 g for 10 min. Protein concentrations were determined using the micro bicinchoninic acid method. For immunoprecipitation studies, lysates were clarified by a 1 h incubation at 4° C. with a mixture of Protein A/Protein G Sepharose beads. After removal of the Sepharose beads by low-speed centrifugation, identical amounts of protein (200 μg) from each sample were transferred to fresh tubes and incubated in lysis buffer overnight at 4° C. in the presence of 2 μg/ml of specific antibodies. Immunocomplexes were collected by incubating the mixture with 25 μl (50% suspension) of Protein A—(rabbit primary antibody) or Protein G—(mouse primary antibody) Sepharose beads, for 2 h. Nonspecifically-bound material was removed by washing the beads three times in 1 ml of lysis buffer containing 1 mM sodium orthovanadate, and bound material was solubilized in 25 μl of two-fold concentrated Laemmli sample buffer, boiled 5 min, and resolved by SDS-PAGE. The proteins were transferred onto polyvinylidene difluoride (PVDF) membranes, blocked 1 h at room temperature with Tris-buffered saline/Tween 20 (147 mM NaCl, 20 mM Tris/HCl, pH 7.5, and 0.1% Tween 20) containing 2% bovine serum albumin and incubated overnight at 4° C. with primary antibody.
VEGF is a strong activator of ERKs (Extracellular-signal-Regulated protein Kinases) 1 and 2 via VEGF receptor 2. In order to test the ability of the PCK3145 derivative in potentially antagonizing VEGF-mediated ERK phosphorylation, serum-starved quiescent endothelial cells (HUVEC) were incubated with vehicle (phosphate-buffered saline (PBS) pH 7.4) or PCK3145 derivative (300 μg/ml) for 24 h and then stimulated with VEGF, bFGF (basic Fibroblast Growth Factor) or S1P (sphingosine-1-phosphate). Cells were washed with PBS containing NaF/Na3VO4 and incubated in the same medium buffer for 1 h at 4° C. The cells were scraped from the culture dishes and the resulting lysates clarified by centrifugation. Western blotting and immunodetection using anti-phosphoERK and anti-ERK antibodies was then performed.

ERK [2] = assay: PDGF-induced ERK phosphorylation in PASMC; type: cell-based; details: treatment as for HUVEC
Protocol: as §1
(§2) Immunoprecipitation and immunoblotting procedures. After treatment, cells were washed once with phosphate-buffered saline (PBS) containing 1 mM sodium orthovanadate and were incubated in the same medium for 1 h at 4° C. The cells were solubilized on ice in lysis buffer (150 mM NaCl, 10 mM Tris-HCl, pH 7.4, 1 mM EDTA, 1 mM EGTA, 0.5% Nonidet P-40, 1% Triton X-100) containing 1 mM sodium orthovanadate. The cells were then scraped from the culture dishes and the resulting lysates were clarified by centrifugation at 10,000 g for 10 min. Protein concentrations were determined using the micro bicinchoninic acid method. For immunoprecipitation studies, lysates were clarified by a 1 h incubation at 4° C. with a mixture of Protein A/Protein G Sepharose beads. […]

VEGFR-2 = target: T1, VEGFR-2 (Homo sapiens, UniProt P35968); assay: VEGF-induced VEGFR-2 phosphorylation in HUVEC (immunoprecipitation, western blot); type: cell-based
T1 construct: host or cells: HUVEC
Protocol: as §1
as §2, with “beads. After removal of the Sepharose beads by low-speed centrifugation, identical amounts of protein (200 μg) from each sample were transferred to fresh tubes and incubated in lysis buffer overnight at 4° C. in the presence of 2 μg/ml of specific antibodies.” for “beads.”
The multifunctionality of VEGF at the cellular level results from its ability to initiate a diverse, complex and integrated network of signaling pathways via its major receptor, VEGFR-2. […] After each treatment, equal amounts of protein were immunoprecipitated with anti-VEGFR-2 polyclonal antibodies and analysed by Western blotting.

PDGF receptor (PDGFR) = target: T2, PDGF receptor (PDGFR) (Homo sapiens, UniProt P09619); assay: PDGF-induced PDGFR phosphorylation in PASMC; type: cell-based; details: treatment as for HUVEC
T2 construct: host or cells: PASMC (pulmonary aortic smooth muscle cells)
Protocol: as §1, §2

T1 sequence (P35968 20-1356): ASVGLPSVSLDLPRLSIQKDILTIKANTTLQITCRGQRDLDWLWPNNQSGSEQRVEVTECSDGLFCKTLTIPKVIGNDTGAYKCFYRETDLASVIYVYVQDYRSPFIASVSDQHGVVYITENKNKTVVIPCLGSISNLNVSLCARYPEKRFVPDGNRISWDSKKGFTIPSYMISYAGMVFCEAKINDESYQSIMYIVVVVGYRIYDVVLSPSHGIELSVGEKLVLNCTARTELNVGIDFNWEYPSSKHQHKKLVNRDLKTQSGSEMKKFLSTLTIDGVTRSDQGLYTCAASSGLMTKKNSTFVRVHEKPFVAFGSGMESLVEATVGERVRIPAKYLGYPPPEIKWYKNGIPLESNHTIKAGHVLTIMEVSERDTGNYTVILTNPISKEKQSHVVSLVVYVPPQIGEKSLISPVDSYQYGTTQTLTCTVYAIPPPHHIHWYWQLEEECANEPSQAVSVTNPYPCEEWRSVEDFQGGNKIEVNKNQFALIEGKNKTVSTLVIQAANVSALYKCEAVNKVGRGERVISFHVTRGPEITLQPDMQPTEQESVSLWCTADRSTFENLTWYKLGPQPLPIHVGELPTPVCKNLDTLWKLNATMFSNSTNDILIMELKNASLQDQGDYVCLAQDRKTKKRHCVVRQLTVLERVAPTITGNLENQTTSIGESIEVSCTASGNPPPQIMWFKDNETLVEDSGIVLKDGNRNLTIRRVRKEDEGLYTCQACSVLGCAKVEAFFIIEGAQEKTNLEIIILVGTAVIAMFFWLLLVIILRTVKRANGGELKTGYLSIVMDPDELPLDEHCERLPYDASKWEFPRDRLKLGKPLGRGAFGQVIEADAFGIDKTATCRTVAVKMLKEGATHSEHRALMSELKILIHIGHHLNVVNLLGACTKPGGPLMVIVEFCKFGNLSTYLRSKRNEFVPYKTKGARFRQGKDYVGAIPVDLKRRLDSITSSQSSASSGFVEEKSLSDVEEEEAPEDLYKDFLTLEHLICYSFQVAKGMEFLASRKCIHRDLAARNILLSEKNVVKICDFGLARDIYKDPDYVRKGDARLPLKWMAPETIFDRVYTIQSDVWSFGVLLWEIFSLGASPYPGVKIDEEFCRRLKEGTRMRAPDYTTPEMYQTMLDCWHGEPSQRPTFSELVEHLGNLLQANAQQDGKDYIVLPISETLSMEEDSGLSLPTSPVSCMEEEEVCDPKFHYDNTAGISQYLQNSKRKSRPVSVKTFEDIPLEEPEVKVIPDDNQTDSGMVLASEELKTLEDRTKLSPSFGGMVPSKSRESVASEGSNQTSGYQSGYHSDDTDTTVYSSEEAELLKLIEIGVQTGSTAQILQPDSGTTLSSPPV
T2 sequence (P09619 33-1106): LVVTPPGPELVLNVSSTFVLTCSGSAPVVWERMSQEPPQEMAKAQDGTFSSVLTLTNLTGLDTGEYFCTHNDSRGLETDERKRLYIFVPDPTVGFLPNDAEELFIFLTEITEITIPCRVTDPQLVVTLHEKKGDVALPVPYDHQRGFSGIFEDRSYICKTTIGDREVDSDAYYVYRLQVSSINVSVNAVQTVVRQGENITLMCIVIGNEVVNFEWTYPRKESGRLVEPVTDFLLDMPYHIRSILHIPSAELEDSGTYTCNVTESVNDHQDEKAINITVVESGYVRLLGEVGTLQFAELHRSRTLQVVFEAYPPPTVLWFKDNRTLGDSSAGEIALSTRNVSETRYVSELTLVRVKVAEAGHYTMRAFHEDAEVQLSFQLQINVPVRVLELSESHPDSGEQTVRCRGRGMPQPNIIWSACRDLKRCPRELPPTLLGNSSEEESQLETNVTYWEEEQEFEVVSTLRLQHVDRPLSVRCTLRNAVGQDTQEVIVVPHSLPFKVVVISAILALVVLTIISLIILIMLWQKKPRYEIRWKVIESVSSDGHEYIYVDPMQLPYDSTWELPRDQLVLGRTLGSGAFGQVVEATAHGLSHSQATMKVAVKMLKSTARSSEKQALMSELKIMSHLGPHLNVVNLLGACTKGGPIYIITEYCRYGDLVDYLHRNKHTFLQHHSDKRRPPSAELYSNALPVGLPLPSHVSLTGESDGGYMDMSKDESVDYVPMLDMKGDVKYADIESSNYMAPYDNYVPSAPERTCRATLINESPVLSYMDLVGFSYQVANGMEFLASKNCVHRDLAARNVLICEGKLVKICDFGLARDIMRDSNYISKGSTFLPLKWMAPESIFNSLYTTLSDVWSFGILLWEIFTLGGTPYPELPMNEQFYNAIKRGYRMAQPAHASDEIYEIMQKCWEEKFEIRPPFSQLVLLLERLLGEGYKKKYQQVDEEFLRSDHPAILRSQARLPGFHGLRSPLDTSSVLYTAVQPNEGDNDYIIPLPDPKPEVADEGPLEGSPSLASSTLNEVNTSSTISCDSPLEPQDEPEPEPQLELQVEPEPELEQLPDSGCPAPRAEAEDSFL

- dose dependence of inhibition of VEGF-induced VEGFR-2 phosphorylation (VEGFR-2; HUVEC): dose-dependent
- phosphorylation of VEGFR-2 induced by VEGF (VEGFR-2; serum-starved HUVEC, 300 μg/ml, 24 h): inhibited
- PDGFR phosphorylation induced by PDGF (PDGF receptor (PDGFR)): inhibition
Sequence: EWQTDNCETCTCYET (cysteine pairing not given here)
- SEAP reporter, NFkB pathway (NFkB pathway): triggers significantly
- time-course of effect on VEGF-induced ERK phosphorylation (ERK [1]; HUVEC, 3 and 24 hrs): necessity of a long term action
- total amount of ERK (ERK [1]; HUVEC, each sample of cells): unaffected
- dose-response of ERK phosphorylation by VEGF (ERK [1]; HUVEC, increasing doses): gradually inhibit
- ERK phosphorylation induced by VEGF (ERK [1]; serum-starved HUVEC, 300 μg/ml for 24 h, then VEGF): specific inhibitory effect; also recorded: comparable to that of PD98059
- ERK phosphorylation induced by bFGF (ERK [1]; serum-starved HUVEC, 300 μg/ml for 24 h, then bFGF): not that induced by bFGF
- PDGF-induced ERK phosphorylation (ERK [2]): inhibition
